The term half-life denotes how long it takes for the measured level to halve.

Consider two compounds from ChEMBL document CHEMBL6114940, “Exploring the pharmaceutical potential of ammonium organotrifluoroborate functional group: Comprehensive chemical, metabolic, and plasma stability evaluation” (Eur J Med Chem, 2024).

The nature of data set [1]: Stability of compound in 0.05 M HCL assessed as solvolysis constant (K) incubated for 72 hrs by LC-MS analysis. Set-up: unit not given beside the values. The class given is physicochemical. As to conditions: buffer.
A short description of data set [2]: Stability of compound in 20 mM CH3COONH4 buffer at pH 5.8 assessed as half life incubated for 72 hrs by LC-MS analysis. It counts as physicochemical. The following applies: 20 mM ammonium acetate (CH3COONH4) buffer.
A short description of data set [3]: Metabolic stability in mouse liver microsomes assessed as drug hydrolysis by measuring 1-(boronomethyl)-1-(2-(2-(2-(((2R,3R,4S,5S,6R)-3,4,5-trihydroxy-6-(hydroxymethyl)tetrahydro-2H-pyran-2-yl)oxy)ethoxy)ethoxy)ethyl)piperidin-1-ium formation incubated for 1 hrs by LC-MS/MS analysis. The class given is ADME, Microsome.
Data set [4] in a line: Stability of compound in 50 mM Tris-HCL buffer at pH 7.4 assessed as solvolysis constant (K) incubated for 72 hrs by LC-MS analysis. It counts as physicochemical. The following applies: pH 7.4, 72 h.
The nature of data set [5]: Stability of compound in 0.05 M HCL assessed as half life incubated for 72 hrs by LC-MS analysis. The class given is physicochemical.
A short description of data set [6]: Stability of compound in 0.5 M NaOH assessed as half life incubated for 72 hrs by LC-MS analysis. The class given is physicochemical.
The nature of data set [7]: Stability of compound in 20 mM CH3COONH4 buffer at pH 5.8 assessed as 1-(boronomethyl)-1-(2-(2-(2-(((2R,3R,4S,5S,6R)-3,4,5-trihydroxy-6-(hydroxymethyl)tetrahydro-2H-pyran-2-yl)oxy)ethoxy)ethoxy)ethyl)piperidin-1-ium formation incubated for 72 hrs by LC-MS analysis. The class given is physicochemical. The following applies: pH 5.8, 72 h.
Data set [8] can be described thus: Stability of compound in 0.5 M NaOH assessed as 1-methyl-1-(2-(2-(2-(((2R,3R,4S,5S,6R)-3,4,5-trihydroxy-6-(hydroxymethyl)tetrahydro-2H-pyran-2-yl)oxy)ethoxy)ethoxy)ethyl)piperidin-1-ium formation incubated for 72 hrs by LC-MS analysis. It counts as physicochemical.
The nature of data set [9]: Stability of compound in 0.9 % saline solution assessed as solvolysis constant (K) incubated for 72 hrs by LC-MS analysis. The class given is physicochemical. The following applies: buffer.
Data set [10] can be described thus: Stability of compound in 0.5 M NaOH assessed as 1-(boronomethyl)-1-(2-(2-(2-(((2R,3R,4S,5S,6R)-3,4,5-trihydroxy-6-(hydroxymethyl)tetrahydro-2H-pyran-2-yl)oxy)ethoxy)ethoxy)ethyl)piperidin-1-ium formation incubated for 72 hrs by LC-MS analysis. The class given is physicochemical.
Data set [11] in a line: Stability of compound in 0.3 % H2O2 assessed as (2R,3S,4S,5R,6R)-2-(hydroxymethyl)-6-(2-(2-(2-(piperidin-1-yl)ethoxy)ethoxy)ethoxy)tetrahydro-2H-pyran-3,4,5-triol formation incubated for 1 hrs by LC-MS analysis. It counts as physicochemical.
The nature of data set [12]: Stability of compound in 50 mM Tris-HCL buffer at pH 7.4 assessed as half life incubated for 72 hrs by LC-MS analysis. It counts as physicochemical.
Data set [13] in a line: Stability of compound in 0.5 M NaOH assessed as solvolysis constant (K) incubated for 72 hrs by LC-MS analysis. It counts as physicochemical. The arrangement: unit not given beside the values.
Data set [14] can be described thus: Stability of compound in 0.05 M HCL assessed as 1-(boronomethyl)-1-(2-(2-(2-(((2R,3R,4S,5S,6R)-3,4,5-trihydroxy-6-(hydroxymethyl)tetrahydro-2H-pyran-2-yl)oxy)ethoxy)ethoxy)ethyl)piperidin-1-ium formation incubated for 72 hrs by LC-MS analysis. It counts as physicochemical. The following applies: buffer.
Data set [15] in a line: Stability in mouse plasma measured after 1 hr by LC-HRMS analysis. The following applies: read-out: Stability. It counts as ADME, cell-free.
Data set [16] is described as follows: Stability of compound in 20 mM CH3COONH4 buffer at pH 5.8 assessed as solvolysis constant (K) incubated for 72 hrs by LC-MS analysis. It counts as physicochemical. The arrangement: unit not given beside the values. The following applies: pH 5.8, 72 h.
Data set [17] can be described thus: Stability of compound in 50 mM Tris-HCL buffer at pH 7.4 assessed as 1-(boronomethyl)-1-(2-(2-(2-(((2R,3R,4S,5S,6R)-3,4,5-trihydroxy-6-(hydroxymethyl)tetrahydro-2H-pyran-2-yl)oxy)ethoxy)ethoxy)ethyl)piperidin1ium formation incubated for 72 hrs by LC-MS analysis. The following applies: pH 7.4, 72 h. The class given is physicochemical.
Data set [18] in a line: Stability of compound in 0.9 % saline solution assessed as 1-(boronomethyl)-1-(2-(2-(2-(((2R,3R,4S,5S,6R)-3,4,5-trihydroxy-6-(hydroxymethyl)tetrahydro-2H-pyran-2-yl)oxy)ethoxy)ethoxy)ethyl)piperidin-1-ium formation incubated for 72 hrs by LC-MS analysis. It counts as physicochemical. The following applies: buffer.
The nature of data set [19]: Stability of compound in 0.9 % saline solution assessed as half life incubated for 72 hrs by LC-MS analysis. It counts as physicochemical.
A short description of data set [20]: Stability of compound in 0.05 M HCL assessed as 4-(boronomethyl)-4-(2-(2-(2-(((2R,3R,4S,5S,6R)-3,4,5-trihydroxy-6-(hydroxymethyl)tetrahydro-2H-pyran-2-yl)oxy)ethoxy)ethoxy)ethyl)morpholin-4-ium formation incubated for 72 hrs by LC-MS analysis. The class given is physicochemical. As to conditions: buffer.
Data set [21] can be described thus: Stability of compound in 0.5 M NaOH assessed as 4-(boronomethyl)-4-(2-(2-(2-(((2R,3R,4S,5S,6R)-3,4,5-trihydroxy-6-(hydroxymethyl)tetrahydro-2H-pyran-2-yl)oxy)ethoxy)ethoxy)ethyl)morpholin-4-ium formation incubated for 72 hrs by LC-MS analysis. The class given is physicochemical.
Data set [22] can be described thus: Stability of compound in 0.9 % saline solution assessed as 4-(boronomethyl)-4-(2-(2-(2-(((2R,3R,4S,5S,6R)-3,4,5-trihydroxy-6-(hydroxymethyl)tetrahydro-2H-pyran-2-yl)oxy)ethoxy)ethoxy)ethyl)morpholin-4-ium formation incubated for 72 hrs by LC-MS analysis. The class given is physicochemical. As to conditions: buffer.
The nature of data set [23]: Stability of compound in 0.5 M NaOH assessed as 4-methyl-4-(2-(2-(2-(((2R,3R,4S,5S,6R)-3,4,5-trihydroxy-6-(hydroxymethyl)tetrahydro-2H-pyran-2-yl)oxy)ethoxy)ethoxy)ethyl)morpholin-4-ium formation incubated for 72 hrs by LC-MS analysis. The class given is physicochemical.
Data set [24] in a line: Stability of compound in 50 mM Tris-HCL buffer at pH 7.4 assessed as 4-(boronomethyl)-4-(2-(2-(2-(((2R,3R,4S,5S,6R)-3,4,5-trihydroxy-6-(hydroxymethyl)tetrahydro-2H-pyran-2-yl)oxy)ethoxy)ethoxy)ethyl)morpholin4ium formation incubated for 72 hrs by LC-MS analysis. It counts as physicochemical. As to conditions: pH 7.4, 72 h.
The nature of data set [25]: Stability of compound in 0.3 % H2O2 assessed as (2R,3S,4S,5R,6R)-2-(hydroxymethyl)-6-(2-(2-(2-morpholinoethoxy)ethoxy)ethoxy)tetrahydro-2H-pyran-3,4,5-triol formation incubated for 1 hrs by LC-MS analysis. The class given is physicochemical.
Data set [26] is described as follows: Stability of compound in 20 mM CH3COONH4 buffer at pH 5.8 assessed as 4-(boronomethyl)-4-(2-(2-(2-(((2R,3R,4S,5S,6R)-3,4,5-trihydroxy-6-(hydroxymethyl)tetrahydro-2H-pyran-2-yl)oxy)ethoxy)ethoxy)ethyl)morpholin-4-ium formation incubated for 72 hrs by LC-MS analysis. The class given is physicochemical. The following applies: pH 5.8, 72 h.
Data set [27] is described as follows: Metabolic stability in mouse liver microsomes assessed as drug hydrolysis by measuring 4-(boronomethyl)-4-(2-(2-(2-(((2R,3R,4S,5S,6R)-3,4,5-trihydroxy-6-(hydroxymethyl)tetrahydro-2H-pyran-2-yl)oxy)ethoxy)ethoxy)ethyl)morpholin-4-ium incubated for 1 hrs by LC-MS/MS analysis. It counts as ADME, Microsome. In general terms: Liver microsomes are vesicles of endoplasmic reticulum, rich in cytochrome P450 enzymes.

For `OC[C@H]1O[C@@H](OCCOCCOCC[N+]2(C[B-](F)(F)F)CCCCC2)[C@H](O)[C@@H](O)[C@@H]1O`, the K in data set [1] turned out to be 6.439; in data set [4] it was 0.146; in [9] it was 0.383; in data set [13], 0.14; in [16], 0.078. Also, the half-life in data set [2] is 8.82 h; in [5], 0.108 h; in data set [6] it was 4.95 h; in [12], 4.76 h; in data set [19], 1.81 h. In [3], the Drug metabolism result is recorded as “metabolite_detected”. Further, the Stability result in data set [7], in data set [8], in data set [10], in [11], in data set [14] and in data set [17] was “Stable” each time. For the same compound, the Stability result in data set [18] was “Stable”. The remaining at 1 h in [15] was 14.1%.
In the case of `OC[C@H]1O[C@@H](OCCOCCOCC[N+]2(C[B-](F)(F)F)CCOCC2)[C@H](O)[C@@H](O)[C@@H]1O`, the Stability result in data set [20], in data set [21], in data set [22], in data set [23], in data set [24] and in [25] was “Stable” in each case. Besides, in [26], the Stability result is recorded as “Stable”. Besides, the K in data set [1] was determined as 2.302; in data set [4], 0.068; in data set [9], 0.136; in [13], 0.061; in [16], 0.021. Further, the half-life in data set [2] was 32.7 h; in data set [5], 0.301 h; in data set [6], 11.3 h; in data set [12] it was 10.1 h; in data set [19] it was 5.11 h. Moreover, in [15], the remaining at 1 h worked out at 2.73%. The Drug metabolism entry in data set [27] is recorded as “metabolite_detected”.
